The target in one test is hNAMPT protein (Homo sapiens (Human), UniProt P43490). The experiment in a line: NAMPT enzyme assay (TR-FRET/HTRF with BodiPY ligand). In kind it is binding. Particulars: for inhibition at 1 µM: NAMPT inhibition at compound concentration 1 μM, read-out: Percent Inhibition; for IC50: NAMPT inhibition, IC50 range class. The method in brief:
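His-tagged hNAMPT with anti-6His-Tb, incubated with compound and BodiPY ligand for 1 h at rt in the dark, in Tris-HCl pH 7.5 buffer with DTT, NaCl, MgCl2 and Tween 20. TR-FRET measured with 320 nm excitation as the 520/486 nm emission ratio. IC50 fitted relative to DMSO controls.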
A general note: Time-resolved FRET reads energy transfer from a long-lived donor to a nearby acceptor.

The next test has as its system PC3 cells. The experiment in a line: PC3 growth inhibition (Cell-titer glo, 72 hours). It counts as cell-based. Particulars: Homo sapiens, PC-3, 72 h, read-out: Percent Viability, PC3 cells, compound concentration 1.667 μM, 72 hours. The method in brief: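 PC3 cells grown in RPMI1640 plated at 8×10^4 cells/ml, incubated overnight, then exposed to compound diluted in AIM serum-free medium for 72 h at 37 °C, 5% CO2. Luminescence by CellTiter-Glo relative to DMSO controls; % viability at single concentration, GI50 or LD50 from concentration-response curves.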

For orientation: inhibition means the relative decrease from the control value, in per cent. Usually IC50 stands for the point on the concentration scale where inhibition reaches its midpoint. High values mean a need for much substance, low ones inhibition by little substance.

hNAMPT protein, sequence (P43490 whole entry): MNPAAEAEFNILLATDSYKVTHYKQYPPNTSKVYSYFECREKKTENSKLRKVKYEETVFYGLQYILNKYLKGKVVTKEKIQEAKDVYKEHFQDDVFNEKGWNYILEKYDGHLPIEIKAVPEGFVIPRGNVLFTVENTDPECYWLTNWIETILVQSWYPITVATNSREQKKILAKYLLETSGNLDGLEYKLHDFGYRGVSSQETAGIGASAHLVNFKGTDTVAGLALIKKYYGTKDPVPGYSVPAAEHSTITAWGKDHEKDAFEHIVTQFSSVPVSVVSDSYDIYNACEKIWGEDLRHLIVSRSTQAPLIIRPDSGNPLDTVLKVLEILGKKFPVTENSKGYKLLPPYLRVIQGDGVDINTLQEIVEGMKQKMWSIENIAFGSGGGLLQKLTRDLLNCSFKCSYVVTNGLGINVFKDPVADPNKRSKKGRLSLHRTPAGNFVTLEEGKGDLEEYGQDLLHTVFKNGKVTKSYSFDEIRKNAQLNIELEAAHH

Regarding `CCOc1cc(-c2ccnc(OC)c2)nc2cc(C(=O)NCCCc3[nH]nnc3C)ccc12` [Compound I-71, 4-ethoxy-2-(2-methoxypyridin-4-yl)-N-[3-(4-methyl-1H-1,2,3-triazol-5-yl)propyl]quinoline-7-carboxamide], at hNAMPT protein, the inhibition at 1 µM is 97% and the 50% inhibitory concentration (IC50) lay within 10 to 50 nM. The viability at 1.667 µM with PC3 cells was found to be 2%.
Regarding `CCOc1cc(-c2ccc(F)cc2)nc2cc(C(=O)NCc3cc4[nH]ncc4s3)ccc12` [Compound I-80, 4-ethoxy-2-(4-fluorophenyl)-N-(1H-thieno[3,2-c]pyrazol-5-ylmethyl)quinoline-7-carboxamide], at hNAMPT protein, the inhibition at 1 µM came out at 98% and the IC50 is less than 10 nM. In addition, the viability at 1.667 µM in the test on PC3 cells turned out to be 2%.
Taken in the same sequence, the figures for `CCOc1cc(-c2ccnc(OC)c2)nc2cc(C(=O)NCCc3c[nH]nc3C)ccc12` [Compound I-100, 4-ethoxy-2-(2-methoxypyridin-4-yl)-N-[2-(3-methyl-1H-pyrazol-4-yl)ethyl]quinoline-7-carboxamide] were 92%, 50 to 100 nM and 2%.
In the same order, the values of `COCCOc1cc(-c2ccc(F)cc2)nc2cc(C(=O)NCCCc3ncc[nH]3)ccc12` [Compound I-156, 2-(4-fluorophenyl)-N-[3-(1H-imidazol-2-yl)propyl]-4-(2-methoxyethoxy)quinoline-7-carboxamide] are 100%, less than 10 nM and 2%.
Taken in the same sequence, the figures for `CCOc1cc(-c2ccncc2OC)nc2cc(C(=O)NCCCc3nnc[nH]3)ccc12` [Compound I-139, 4-ethoxy-2-(3-methoxypyridin-4-yl)-N-[3-(4H-1,2,4-triazol-3-yl)propyl]quinoline-7-carboxamide] were 99%, 10 to 50 nM and 2%.
In the case of `CCOc1cc(-c2ccncc2)nc2cc(C(=O)NCCCc3nnc[nH]3)ccc12` [Compound I-214, 4-ethoxy-2-(pyridin-4-yl)-N-[3-(4H-1,2,4-triazol-3-yl)propyl]quinoline-7-carboxamide], at hNAMPT protein, the inhibition at 1 µM was 97% and the IC50 fell in the range of 10 to 50 nM. Besides, the viability at 1.667 µM in the test with PC3 cells worked out at 1%.
